Laboratory results: patent US9145411B2, “Substituted amino-pyrimidine derivatives” (Asana Biosciences, LLC, priority 2012, dated 2015)

How the values were obtained:
pS6RP = assay: In-cell Western assay, pS6RP, U87MG cells; type: cell-based; conditions: Homo sapiens, U-87 MG, read-out: inhibition of pS6RP, IC50
Description: Cells from human prostate cancer cell line PC3 (American Type Culture Collection (ATCC), Manassas, Va. 20108 USA) were seeded at an optimal density of 22,000 cell/well in 96-well plates containing Ham's F12K medium (90 μL) and incubated overnight. The compound dilutions were carried out in 100% DMSO followed by a dilution in the medium. Test compounds were added in serial dilutions to the wells and incubated for 2 hours. The cells were washed and fixed with 4% paraformaldehyde. After incubation at room temperature for 1 hour in the dark, blocking was done for 2 hours at room temperature. […] IC50 values were calculated using a sigmoidal dose-response curve fit in GraphPad Prism® v5 software.
In-cell Western assays for pAkt(T308) and pS6RP were also carried out in a glioma cancer cell line with a PTEN null mutation (U87MG cells), in a similar manner to the protocol described above for PC3 cells, in order to assess the ability of the compounds to inhibit the Akt-pathway in a glioma cancer cell line. […] Compounds of the invention cause inhibition of pAkt(T308), pAkt(S473) and pS6RP in U87MG, BT474 and T47D cell lines as determined by these assays.

PC3 cells = assay: In vivo efficacy study (tumor growth suppression), PC3 xenograft; conditions: athymic male mice, after 14 days of dosing at 50 mg/kg qd po
Description: PC3 cells were cultured at 37° C. in a 5% CO2 incubator using Hams F12 K medium. Five million (5×10^6) cells were implanted subcutaneously to the right flank of athymic male mice (Harlan, age: 6-7 weeks, weight: about 20 g). Tumor bearing mice were randomized when the tumor volume reached about 100 mm^3 Ten mice were used per group. Compounds of formula (I) were typically formulated using HPCD in PBS, pH 7.4 or in 10% Ethanol/40% Solutol/50% 50 mM aq. methanesulfonic acid and dosed orally (dose volume, 10 mL/kg). Solutions of the compounds were prepared immediately before dosing the animals. A vehicle control and a reference compound were included along with test compounds.
The tumor size was measured on alternate days using Vernier® calipers. Assuming tumors to be ellipsoid, the tumor volume was calculated using the formula: V=(D×d^2)/2 • where: • V (mm^3) is tumor volume • D is longest diameter in mm • d is shortest diameter in mm.
Changes in tumor volume (Δ volumes) for each treated (T) and control (C) group were calculated by subtracting the mean tumor volume on the first day of treatment (starting day) from the mean tumor volume on the specified observation day. […]
Percentage tumor growth inhibition was calculated as [100−% T/C]. Percentage body weight change was calculated as [(Body weight on specified observation day−Body weight on starting day)/Body weight on starting day]×100. […]

PI3 kinase isoform β = PI3 kinase isoform β (Homo sapiens, UniProt P42338); assay: PI3 Kinase TR-FRET assay, isoform β; type: biochemical; conditions: read-out: inhibition of PI3 kinase isoform β, IC50
Description: The ability of compounds of the invention to inhibit PI3K activity was determined in a homogeneous TR-FRET assay using a PI3K assay kit (Millipore, USA; cat #33-016) according to manufacturer's instructions. PI3-Kinases (isoforms α, β, γ and δ) catalyze the phosphorylation of phosphatidylinositol, PIP2 to PIP3 in the presence of ATP and Mg^2+. The PIP3 product is detected by displacement of biotin-PIP3 from an energy transfer complex consisting of Europium labeled anti-GST monoclonal antibody, a GST-tagged PH domain, biotinylated PIP3 and Streptavidin-APC. Excitation of Europium in the complex results in an energy transfer to the APC and a fluorescence emission at 665 nm. The PIP3 product displaces biotin-PIP3 from the complex resulting in a loss of energy transfer and thus a decrease in signal.
To test for the ability of compounds to inhibit the activity of PI3Kα (wild-type), exemplary compounds of formula (I) were dissolved in DMSO and directly distributed into 384-well plates at a volume of 0.5 μL. […] Fluorescence was measured at 615 and 665 nm upon excitation at 340 nm in a Victor™ V5 fluorometer (Perkin Elmer, USA). The fluorescence emission ratio at 665 to 615 nm, proportional to the kinase activity, was plotted against the compound concentration to generate dose-response curves and IC50 values were determined using GraphPad Prism® 5 software. […]

PI3 kinase isoform β, sequence (P42338 whole entry, the tested form may be a part, canonical isoform): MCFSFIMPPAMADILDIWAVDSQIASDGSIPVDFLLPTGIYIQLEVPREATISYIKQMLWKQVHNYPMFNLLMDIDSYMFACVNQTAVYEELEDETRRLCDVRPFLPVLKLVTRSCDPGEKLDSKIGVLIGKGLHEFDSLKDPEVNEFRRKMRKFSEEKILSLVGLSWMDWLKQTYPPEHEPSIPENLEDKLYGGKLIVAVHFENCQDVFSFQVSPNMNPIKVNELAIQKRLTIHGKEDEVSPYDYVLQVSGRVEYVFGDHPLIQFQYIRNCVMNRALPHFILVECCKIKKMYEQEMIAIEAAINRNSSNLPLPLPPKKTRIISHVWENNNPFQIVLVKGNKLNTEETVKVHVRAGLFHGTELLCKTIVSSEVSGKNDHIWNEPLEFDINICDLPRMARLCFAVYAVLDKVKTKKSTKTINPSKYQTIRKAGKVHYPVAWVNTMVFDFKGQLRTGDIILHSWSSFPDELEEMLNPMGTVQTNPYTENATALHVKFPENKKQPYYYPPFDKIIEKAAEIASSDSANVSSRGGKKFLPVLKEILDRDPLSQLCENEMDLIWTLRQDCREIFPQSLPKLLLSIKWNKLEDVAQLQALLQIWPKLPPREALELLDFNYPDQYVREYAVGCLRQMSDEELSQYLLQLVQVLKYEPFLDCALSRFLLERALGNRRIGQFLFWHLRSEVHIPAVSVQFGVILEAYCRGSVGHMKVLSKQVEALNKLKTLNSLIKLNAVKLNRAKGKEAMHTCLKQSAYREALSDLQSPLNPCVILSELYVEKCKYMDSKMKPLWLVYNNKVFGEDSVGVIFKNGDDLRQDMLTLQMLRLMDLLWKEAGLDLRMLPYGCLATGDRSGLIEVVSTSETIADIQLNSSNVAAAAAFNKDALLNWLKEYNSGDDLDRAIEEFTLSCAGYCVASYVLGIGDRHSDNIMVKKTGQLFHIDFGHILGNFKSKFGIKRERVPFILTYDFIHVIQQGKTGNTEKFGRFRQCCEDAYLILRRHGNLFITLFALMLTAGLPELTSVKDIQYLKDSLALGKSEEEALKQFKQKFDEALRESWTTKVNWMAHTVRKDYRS
PI3 kinase isoform β, sequence (P27986 whole entry partner, the tested form may be a part, canonical isoform): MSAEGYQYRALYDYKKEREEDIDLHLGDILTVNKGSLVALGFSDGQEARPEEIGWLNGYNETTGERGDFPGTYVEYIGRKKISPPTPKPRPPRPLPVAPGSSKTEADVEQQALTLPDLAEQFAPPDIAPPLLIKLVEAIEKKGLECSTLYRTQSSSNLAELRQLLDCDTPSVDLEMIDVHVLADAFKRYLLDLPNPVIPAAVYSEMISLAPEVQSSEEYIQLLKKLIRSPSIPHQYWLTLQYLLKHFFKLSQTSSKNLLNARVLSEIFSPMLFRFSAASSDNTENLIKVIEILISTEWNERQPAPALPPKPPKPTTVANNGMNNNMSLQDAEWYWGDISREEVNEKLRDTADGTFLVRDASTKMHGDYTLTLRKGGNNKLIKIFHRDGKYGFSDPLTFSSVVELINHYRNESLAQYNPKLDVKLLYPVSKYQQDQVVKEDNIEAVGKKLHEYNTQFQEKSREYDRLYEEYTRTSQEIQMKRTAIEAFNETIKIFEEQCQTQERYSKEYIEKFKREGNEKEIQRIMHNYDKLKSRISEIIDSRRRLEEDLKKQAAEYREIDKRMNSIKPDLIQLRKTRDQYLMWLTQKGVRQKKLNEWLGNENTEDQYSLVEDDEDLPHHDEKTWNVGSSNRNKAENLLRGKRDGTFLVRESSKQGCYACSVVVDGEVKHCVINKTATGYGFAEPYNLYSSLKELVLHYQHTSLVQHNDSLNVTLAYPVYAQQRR

IC50 (pS6RP): < 500 nM
IC50 (PI3 kinase isoform β): < 500 nM
Structure (SMILES): CC(=O)Nc1cccc(-c2cnc3c(N4CCOCC4)nc(-c4cnc(N)nc4)nc3c2)c1 [Example 3, N-(3-(2-(2-Aminopyrimidin-5-yl)-4-morpholinopyrido[3,2-d]pyrimidin-7-yl)-phenyl)acetamide]
tumor growth inhibition relative to vehicle control group (PC3 cells): more than 40%
